Consider 4 substances from publication PMC9689682, “Tenebrio molitor Proteins-Derived DPP-4 Inhibitory Peptides: Preparation, Identification, and Molecular Binding Mechanism” (Foods, 2022).

For experiment [1], the target named is T1, DPP-4 (Homo sapiens, UniProt P27487).
T1 construct: purchased Millipore Sigma (Burlington, MA, USA)
Briefly: DPP-4 inhibition activity assay (Gly-Pro-p-nitroanilide substrate, OD 405 nm). In kind it is biochemical. Conditions: final concentration 1 mg/mL; n = 3; Figure 4A. As to the method: The inhibition of each sample on DPP-4 was assayed according to a previously described method. Briefly, 20 μL of each sample solution, 50 μL of Tris-HCl buffer (pH8.0, 100 mM), and 100 μL of substrate were mixed in a well of a 96-well plate, then incubated at 37 °C for 10 min. Afterward, the 30 μL of DPP-IV solution was added, then placed at 37 °C for 40 min incubation. Afterward, the optical density was recorded at 405 nm using a BioTek Synergy H1 microplate reader (BioTek, Winooski, VT, USA). The inhibitory effect of the samples on DPP-4 was calculated according to a previously described equation [27].

Experiment [2] addresses T1, DPP-4. Conditions: Bombyx mori protein-derived peptide; cited from earlier work. The text has this:
GLP-1 and GIP are two crucial incretins, which have mainly contributed to the insulin response after meal intake. Suppressing the activity of DPP-4 can increase the level of active incretins, thereby decreasing blood glucose in diabetic patients. Based on the consideration of the adverse effects caused by the chemically synthesized inhibitors, some peptides with inhibitory effects on DPP-4 activity obtained from natural proteins, including milk, egg, grain, edible insects, and aquatic proteins have been widely reported. In the current study, the flavourzyme effectivel ... || It has been reported that the length and size of peptides influence their inhibitory activity against DPP-4.

T1 sequence (P27487 whole entry): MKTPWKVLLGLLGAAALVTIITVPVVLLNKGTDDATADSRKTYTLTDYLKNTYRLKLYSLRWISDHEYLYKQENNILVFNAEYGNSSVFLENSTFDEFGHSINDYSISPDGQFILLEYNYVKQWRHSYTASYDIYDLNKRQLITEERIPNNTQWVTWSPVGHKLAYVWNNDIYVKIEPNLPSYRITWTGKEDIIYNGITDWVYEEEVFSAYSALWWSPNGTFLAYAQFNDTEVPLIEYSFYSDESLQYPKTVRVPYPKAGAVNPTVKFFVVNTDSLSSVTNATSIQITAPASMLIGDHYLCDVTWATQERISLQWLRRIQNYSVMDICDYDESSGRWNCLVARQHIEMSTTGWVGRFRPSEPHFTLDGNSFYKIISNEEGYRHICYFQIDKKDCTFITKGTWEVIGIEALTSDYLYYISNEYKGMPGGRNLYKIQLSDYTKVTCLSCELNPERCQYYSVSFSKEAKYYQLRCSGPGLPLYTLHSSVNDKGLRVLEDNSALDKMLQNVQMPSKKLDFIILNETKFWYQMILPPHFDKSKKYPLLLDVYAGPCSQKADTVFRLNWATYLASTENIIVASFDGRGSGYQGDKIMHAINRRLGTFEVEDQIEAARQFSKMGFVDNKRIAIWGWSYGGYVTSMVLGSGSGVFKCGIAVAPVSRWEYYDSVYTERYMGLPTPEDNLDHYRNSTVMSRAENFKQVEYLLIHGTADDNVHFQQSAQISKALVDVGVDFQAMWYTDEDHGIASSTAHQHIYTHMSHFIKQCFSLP

As to “GLQFPTRPNF [synthesized peptide; origin 86 kDa early-staged encapsulation inducing protein]”, the “inhibitory effect of the synthesized peptides on DPP-4 activity (in words)” value at DPP-4 [1] is listed as “weak inhibitory activity”.
Regarding LPAVTIR, the “IC50 value against DPP-4” value with DPP-4 [2] is 148 µg/mL.
“NEAYFGFPR [synthesized peptide identified from T. molitor flavourzyme hydrolysate; origin Hexamerin 1]”: the “inhibitory effect of the synthesized peptides on DPP-4 activity (in words)” value at DPP-4 [1] is listed as “weak inhibitory activity”.
Same read-out and setting: in the case of “SNGLPFPTRP [synthesized peptide identified from T. molitor flavourzyme hydrolysate; origin Hexamerin 1]” it was “weak inhibitory activity”.
